According to patent US20150296765A1, “DEVICE FOR SPRAYING POWDERY CHEMICAL AGENT AND PROCESS FOR SPRAYING POWDERY CHEMICAL AGENT” (EARTH CHEMICAL CO., LTD., priority 2012, published 2015):
Like-named read-outs stand apart in the source and are kept apart here.

Assays:
Smoky-brown cockroaches [1] = settings: for insect pest-controlling effect (in words): summary of Tables 5 and 6
Source text: (§1) Contents of the test are as follows.
(§2) 1. A test plot having a floor area of about 9 m^2 (270 cm in length×340 cm in width×15 cm in height) as shown in FIG. 5 was set in the interior of a room of 470 cm in length×540 cm in width. The powdery chemical agent spraying device 1 in which the cylindrical body 23 is connected directly with a pump P is placed in the center of a test plot floor face 100; corrugated boxes (A), (B), and (C) each imitating a gap between a kitchen sink and a refrigerator are arranged near one side of the test plot floor face 100 (lower portion in FIG. 5); and a bait 101 and water 103 are arranged near the other side of the test plot floor face 100 (upper portion in FIG. 5). 2. Smoky-brown cockroaches are released on the test plot floor face 100 and habituated in the corrugated boxes (A), (B), and (C), and thereafter, the powdery chemical agent 30 is sprayed from the powdery chemical agent spraying device 1 in which a discharge port of the pump P set up at a pressure of 100 kPa is connected directly with the cylindrical body 23. (Number of test insects: 49 females and 48 males for dinotefura and 50 females and 49 males for d.d-T-cyphenothrin) 3. […] 4. A knockdown (KD) rate and a mortality rate at every passage of a time based on the count number are calculated.
Device in which the discharge port of the pump (rolling pump, manufactured by Okenseiko Co., Ltd.; two pumps of Model Nos. P30C02R8516 and M42C02R8516 coupled with each other) P is connected directly with the cylindrical body 23 (In order to confirm a breaking pressure of each of the sealing films 25 and 27, a pressure gauge G is placed therebetween.)
Cylindrical body 23: The same as the cylindrical body 23 used in the measuring test of falling amount of chemical agent on floor face of Example 1.
Sealing films 25 and 27: The same as the sealing films 25 and 27 used in the measuring test of falling amount of chemical agent on floor face of Example 1.
(§3) Corrugated boxes (A) and (B): Two holes (2 cm×2 cm) through which the cockroach can come and go are opened in front of a corrugated box of 50 cm in length×50 cm in width×25 cm in height.
(§4) Corrugated box (C): The front and the rear of a corrugated box of 50 cm in length×50 cm in width×3 cm in height are fully opened.

Smoky-brown cockroaches [2] = test system: Smoky-brown cockroaches
Source text: as §1
as §2, with “FIG. 4” for “FIG. 5”, “1” for “1 in which the cylindrical body 23 is connected directly with a pump P”, “FIG. 4);” for “FIG. 5);”, “FIG. 4).” for “FIG. 5).”, “2. 28 females and 29 males of smoky-brown” for “2. Smoky-brown”, “device 1. […]” for “device 1 in which a discharge port of the pump P set up at a pressure of 100 kPa is connected directly with the cylindrical body 23. (Number of test insects: 49 females and 48 males for dinotefura and 50 females and 49 males for d.d-T-cyphenothrin)”
Container body 11: PET bottle having a capacity of 280 mL
Cylindrical body 23: Acrylic pipe having an inside diameter of 7 mm and a length of 50 mm
Sealing film 25: Parafilm (trade name: […] M, 4 inch×125 feet)
Sealing film 27: Parafilm (trade name: […] M, 4 inch×125 feet)
The Parafilm was wound around each end part of the cylindrical body 23 to prepare the sealing films 25 and 27, respectively.
The Parafilm was wound without being stretched and adjusted such that a pressure at the time of breaking of each of the sealing films 25 and 27 was 100 kPa.
Sodium bicarbonate 41: 3.8 g
as §3, §4

SMILES | insect pest-controlling effect (in words) (Smoky-brown cockroaches [1]) | KD and mortality (Smoky-brown cockroaches [2]; passage of time 3 hr) | KD and mortality (Smoky-brown cockroaches [2]; passage of time 6 hr) | KD (Smoky-brown cockroaches [2]; passage of time 18 hr) | KD and mortality (Smoky-brown cockroaches [2]; passage of time 18 hr) | KD and mortality (Smoky-brown cockroaches [2]; passage of time 24 hr) | KD (Smoky-brown cockroaches [2]; passage of time 32 hr) | KD and mortality (Smoky-brown cockroaches [2]; passage of time 32 hr) | KD (Smoky-brown cockroaches [2]; passage of time 48 hr) | KD and mortality (Smoky-brown cockroaches [2]; passage of time 48 hr) | KD and mortality (Smoky-brown cockroaches [1]; passage of time 2 hr) | KD (Smoky-brown cockroaches [1]; passage of time 14.5 hr) | KD and mortality (Smoky-brown cockroaches [1]; passage of time 14.5 hr) | KD and mortality (Smoky-brown cockroaches [1]; passage of time 16 hr) | KD and mortality (Smoky-brown cockroaches [1]; passage of time 23 hr) | KD (Smoky-brown cockroaches [1]; passage of time 43 hr) | KD and mortality (Smoky-brown cockroaches [1]; passage of time 43 hr) | KD (Smoky-brown cockroaches [1]; passage of time 48 hr) | KD and mortality (Smoky-brown cockroaches [1]; passage of time 48 hr) | KD and mortality (Smoky-brown cockroaches [1]; passage of time […])
CC(C)=CC1C(C(=O)OC(C#N)c2cccc(Oc3ccccc3)c2)C1(C)C (stereo not drawn) [d.d-T-cyphenothrin] | a high insect pest-exterminating effect could be obtained | – | – | – | – | – | – | – | – | – | – | – | – | – | – | – | – | – | – | –
CN/C(=N/CC1CCOC1)N[N+](=O)[O-] (stereo not drawn) [Chemical agent B, dinotefuran] | a high effectiveness is obtained | 2% | 9% | 25% | 40% | 88% | 9% | 95% | 7% | 96% | 3% | 43% | 59% | 71% | 82% | 18% | 96% | 15% | 96% | 2%
